Here are results for 2 molecules from patent US20240325358A1, “PHARMACEUTICAL COMPOSITION FOR PREVENTION OR TREATMENT OF ALLERGIC SKIN DISEASE OR SKIN PRURITUS” (CUePEAK BIO. Co., Ltd., priority 2023, published 2024).

SMILES strings stand for the structures.

The subject of experiment [1] is normal human epidermal keratinocytes (NHEK). In words: Cell differentiation degree in normal human epidermal keratinocytes. Type of experiment: cell-based. The conditions noted are these: 24 hours of treatment, compared with untreated control group, FIG. 2. From the text:
(§1) • A human epidermal cell line (normal human epidermal keratinocyte; NHEK) is a human fetal transdermal cell line and was used after being distributed from ATCC.
(§2) It was a cell obtained from primary culture and was used for confirming biochemical changes within the cell by ABT-751 or TN-16 under normal conditions, not disease conditions. • Experimental animal: Since a hos:HR-1(hairless) mouse has no hair in skin disease research, it allows skin-related research to be performed by directly applying a drug on skin or inducing skin diseases by chemical or biological allergen.
The normal human epidermal keratinocytes (NHEK) in culture was treated with ABT-751 and TN-16, respectively to measure the expression amount of filaggrin and confirm a change in cell differentiation degree.
NHEK was treated with ABT-751 and TN-16 by concentrations of 0, 0.5, 1.0, and 2.5 μM, respectively, and after 24 hours of treatment, the expression amount of filaggrin and the cell differentiation degree were observed.

The test system of experiment [2] is filaggrin. In words: Expression amount of filaggrin in NHEK by RNA extraction and RT-qPCR. Type of experiment: cell-based, human. Conditions: NHEK, 0, 0.5, 1.0 and 2.5 μM, after 24 hours of treatment; FIGS. 1A and 1B.
Description: as §1, §2
A normal human epidermal keratinocyte (NHEK) on which ABT-751, TN-16, or a control sample was applied, or a mouse skin tissue was dissolved using a TRI reagent (MRC), and then RNA in cells was extracted using Rneasy Mini Kit (Qiagen).
The extracted RNA was reverse-transcribed with ImProm-II TM Reverse Transcription Kit (Promega) to synthesize cDNA, and then an amount of filaggrin was measured by a quantitative PCR (qPCR) through Real-Time PCR Detection System (Bio-Rad, CFX96).
The normal human epidermal keratinocytes (NHEK) in culture was treated with ABT-751 and TN-16, respectively to measure the expression amount of filaggrin and confirm a change in cell differentiation degree. […]

The test system of experiment [3] is filaggrin. In words: Expression amount of filaggrin in HR-1 mouse back skin tissue (RT-qPCR and Western blot). It is filed as in vivo, hos:HR-1 mouse. The conditions noted are these: HR-1 mouse back skin, 1, 2 and 4% formulations applied once a day, vs 0% formulation control; RNA and protein; FIGS. 3A to 3C.
Description: as §2
In addition, it has a skin thickness of about 0.4 mm at 8 to 10 weeks of age, which is similar to the skin of a human, and is useful for research on pathogenesis mechanism of skin diseases and confirmation of biochemical changes in skin tissue. […]
The extracted RNA was reverse-transcribed with ImProm-II TM Reverse Transcription Kit (Promega) to synthesize cDNA, and then an amount of filaggrin was measured by a quantitative PCR (qPCR) through Real-Time PCR Detection System (Bio-Rad, CFX96). […]
The thin film was reacted with an ECL solution (Thermo Fisher), and the protein after the reaction was detected using a luminescence reaction measuring instrument (Fusion Solo, Vilber). […]
Each of RNA and protein was extracted from the back skin tissue on which ABT-751 or TN-16 was applied, respectively, by the method of the text example and the expression amount of filaggrin was measured, and the results are shown in FIG. 3.

In a further experiment the test system is HR-1 mouse skin. In words: Skin barrier function test (skin moisture loss, skin barrier index) in HR-1 mouse. It is filed as in vivo, hos:HR-1 mouse. The conditions noted are these: 4% formulation applied on back skin once a day, vs 0% formulation, effect grew with days of application, FIG. 4.
Description: as §2
In addition, it has a skin thickness of about 0.4 mm at 8 to 10 weeks of age, which is similar to the skin of a human, and is useful for research on pathogenesis mechanism of skin diseases and confirmation of biochemical changes in skin tissue.
2 hours after applying ABT-751 or TN-16, skin moisture loss, a skin barrier index, and a comprehensive index on the application area were measured for 3 weeks with a precision measuring instrument (Courage-khazaka electronic GmbH, MPA10), and recorded.
ABT-751 and TN-16 of 0, 1, 2, and 4% formulations were applied on the back skin of a hairless hos:HR-1 mouse (hereinafter, referred to as HR-1 mouse) in the same amount once a day for 3 weeks, respectively.
After each application, skin moisture loss and a skin barrier index were measured by the method of the test example.
After applying the control group (0% formulation ABT-751 or 0% formulation TN-16) and ABT-751 or TN-16 of a 4% formulation, respectively, skin moisture loss and a skin barrier index were measured, and the results are shown in FIG. 4.

Regarding `COc1ccc(S(=O)(=O)Nc2cccnc2Nc2ccc(O)cc2)cc1` [ABT-751, N-[2-[(4-Hydroxyphenyl)amino]pyridin-3-yl]-4-methoxybenzenesulfonamide], the cell differentiation degree entry in experiment [1] was “significantly increased”. For the same molecule, in the experiment with filaggrin [2], the “expression amount of filaggrin” value was “increased depending on the ABT-751 and TN-16 treatment concentrations”. Moreover, in the experiment with filaggrin [3], the “expression amount of filaggrin in the skin tissue” value is reported as “increased in a concentration-dependent manner”. In addition, in the experiment on HR-1 mouse skin, the skin barrier index entry is recorded as “increased” and the skin moisture loss result is listed as “decreased”.

Consider `C/C(Nc1ccccc1)=C1/C(=O)NC(Cc2ccccc2)C1=O` (stereo not drawn) [TN-16, 3-[1-(phenylamino)ethylidene]-5-(phenylmethyl)-2,4-pyrrolidinedione], for which the “expression amount of filaggrin” value in the experiment on filaggrin [2] is “increased depending on the ABT-751 and TN-16 treatment concentrations”. Further, in the experiment on filaggrin [3], the “expression amount of filaggrin in the skin tissue” value was “increased in a concentration-dependent manner”. In the experiment with HR-1 mouse skin, the skin barrier index entry was “increased” and the skin moisture loss entry is on record as “decreased”.
